We go through one molecule from patent US11679110B2, “Methods of treating disorders using CSF1R inhibitors” (Deciphera Pharmaceuticals, LLC, priority 2018, dated 2023).

Each structure is given as a SMILES string. A value given as a limit tells only on which side of the number the result lay.

The test system of data set [1] is CD16+ monocytes. In words: Depletion of CSF1R-expressing (CD16+) monocytes in peripheral blood of patients, flow cytometry. Format: in vivo, human. The settings on record: C2D1 compared to C1D1. As to the method:
(§1) PK analysis was conducted on all 38 patients. Serial blood samples were collected for PK and took place on either Day −7, Cycle 1, Day 1 (C1D1) and C2D1 at pre-dose, 0.5, 1, 2, 4, 6, 8, 10-12, and 24 hr time points or Day −7, C1D1, C1D8, and C2D1 at pre-dose, 1, 2, 4, 6, and 8 hr time points, or C1D1, C1D8, and C2D1 at pre-dose, 1, 2, 4, 6, and 8 hr time points. High fat meal was given prior to dosing of Compound 1 on Day −7. PD effects were measured by two methodologies: 1) depletion of CSF1R-expressing monocytes in peripheral blood (Cohorts 1-7) from C1D1, C1D15 and C2D1; and 2) increase of plasma levels of CSF1 and IL-34, the ligands for CSF1R (Cohorts 1-7) on C1D1, C1D15, and C2D1. For the CD16^+ monocyte assay, whole blood collected in an EDTA vacutainer was aliquoted into tubes and incubated with fluorescently-labeled antibodies (CD14-Alexa488 (BD Pharmingen); CD16-PE-Cy7 (BD Pharmingen); and TIE2-APC (R&D Systems). After incubation, red blood cells were lysed, and the remaining cells were washed several times before being analyzed on a flow cytometer. For the plasma CSF1 assay or IL-34, whole blood collected in an EDTA vacutainer was centrifuged, and the plasma was collected and frozen. Plasma levels of CSF1 or IL-34 were measured using a commercial ELISA kit (R&D Systems).
(A flow cytometer gives signals particle by particle.)

In data set [2] the test system is intratumoral macrophages. The settings on record: MC38 mice; oral QD; 21 days.
The conditions of data set [3]: dog.
Data set [4] in a line: in vivo. The settings on record: beagle, dog.
Data set [5] concerns CSF1. Put plainly: Plasma CSF1 levels in patients, ELISA. Format: in vivo, human. To be noted: average at C2D1 vs C1D1. As to the method: as §1
For orientation: An ELISA detects its analyte on a solid surface through an enzyme-linked reagent.

For orientation: NOAEL means the highest tested level that showed no adverse finding.

As for `Cc1nc(-c2cnc(NC(C)C)n(C)c2=O)ccc1Oc1ccnc(-c2cnn(C)c2)c1` [Compound 1, 2-(isopropylamino)-3-methyl-5-(6-methyl-5-((2-(1-methyl-1H-pyrazol-4-yl)pyridin-4-yl)oxy)pyridin-2-yl)pyrimidin-4(3H)-one], the “decrease in levels of CSF1R-expressing monocytes” value in data set [1] (Cohort 2) is listed as ~48%; in data set [1] (Cohort 3), ~54%; in data set [1] (Cohort 4), ~79%; in data set [1] (Cohort 5), ~98%. For the same molecule, the “reduction in intratumoral macrophages compared to vehicle or isotype controls (as a percent of all cells in the tumor)” value in data set [2] is reported as > 80%. Further, the NOAEL at 4 weeks in data set [3] (beagle, in vivo) came out at 7.5 mg/kg/day. For the same molecule, the “hepatocellular injury in microscopic histology exams” value in data set [3] (4-week) is “not evident”. Besides, the AST activity entry in data set [3] (4-week, ≥2.5 mg/kg/day) was “minimally to mildly increased”. Besides, the “ALT and GLDH activity” value in data set [3] (4-week, ≥7.5 mg/kg/day) is recorded as “minimally increased”. Moreover, the no-observed-adverse-effect level (NOAEL) at 13 weeks in data set [4] came out at 8 mg/kg/day. The “increase in plasma CSF1” value in data set [5] (Cohort 1) turned out to be 6 fold; in data set [5] (Cohort 2) it was 1.5 fold; in data set [5] (Cohort 3), 2.9 fold; in data set [5] (Cohort 4), 3.2 fold; in data set [5] (Cohort 5) it was 43 fold.
